From PMC9234962, “Optimization of Peptide Linker-Based Fluorescent Ligands for the Histamine H1 Receptor” (Journal of Medicinal Chemistry, 2022)
Square brackets hold non-standard residues; d marks the D form. Side chains are listed from the residue outwards. Peptide text beside a SMILES is read from it. * marks the point of attachment. X1 = O=C(COc1ccc(/C=C/C2=[N+]3C(=Cc4ccc(-c5cccs5)n4[B-]3(F)F)C=C2)cc1)*; Propanoyl(3-Pip(4-O-2-BnPh)) = O=C(CCN1CCC(Oc2ccccc2Cc2ccccc2)CC1)*; BODIPY(FL) = CC1=CC(C)=[N+]2C1=Cc1ccc(CCC(=O)*)n1[B-]2(F)F; Ahx = NCCCCCC(=O)O; βAla = NCCC(=O)O

Target: Nluc-H1R (Homo sapiens, UniProt P35367)
Assay: NanoBRET saturation binding assay on Nluc-H1R expressing HEK293T cells
Parameters: expressed in transfected cells
Conditions: saturation binding curves, whole HEK293T cells; for pKD: non-specific with 10 μM mepyramine, mean ± SEM
Excerpt: Total and non-specific saturation binding curves from NanoBRET saturation binding assay were fitted simultaneously using eq 1: [drawing 4] 1 where Bmax is the maximal specific binding, [B] is the concentration of fluorescent ligand in nM, KD is the equilibrium dissociation constant in nM, M is the slope of the non-specific component, and C is the intercept with the Y axis.

Nluc-H1R, sequence (P35367 whole entry): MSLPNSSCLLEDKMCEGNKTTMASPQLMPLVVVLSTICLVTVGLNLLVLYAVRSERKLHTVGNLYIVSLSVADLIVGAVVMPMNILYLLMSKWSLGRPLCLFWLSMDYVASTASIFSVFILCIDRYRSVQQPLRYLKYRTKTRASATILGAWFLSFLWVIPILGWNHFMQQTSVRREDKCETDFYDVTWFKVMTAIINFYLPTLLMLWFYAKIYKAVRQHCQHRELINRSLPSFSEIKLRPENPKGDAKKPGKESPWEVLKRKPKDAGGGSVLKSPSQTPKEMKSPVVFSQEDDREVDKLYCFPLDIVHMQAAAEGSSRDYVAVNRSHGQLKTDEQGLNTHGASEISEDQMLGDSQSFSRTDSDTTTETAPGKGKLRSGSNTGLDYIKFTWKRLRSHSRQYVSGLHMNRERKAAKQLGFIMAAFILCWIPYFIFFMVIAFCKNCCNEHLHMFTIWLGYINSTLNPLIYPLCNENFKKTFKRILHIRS

SMILES | Kd | pKD
CC(C)[C@H](NC(=O)CCN1CCC(Oc2ccccc2Cc2ccccc2)CC1)C(=O)N[C@@H](C)C(=O)N[C@@H](Cc1ccc(O)cc1)C(=O)NCCC(=O)N[C@@H](CCCCNC(=O)COc1ccc(/C=C/C2=[N+]3C(=Cc4ccc(-c5cccs5)n4[B-]3(F)F)C=C2)cc1)C(N)=O [Compound 31f, (S)-2-((6S,9S,12S)-16-(4-(2-Benzylphenoxy)piperidin-1-yl)-6-(4-hydroxybenzyl)-12-isopropyl-9-methyl-5,8,11,14-tetraoxo-4,7,10,13-tetraazahexadecanamido)-6-(2-(4-((E)-2-(5,5-difluoro-7-(thiophen-2-yl)-5H-5λ^4,6λ^4-di-pyrrolo[1,2-c:2’,1’-f][1,3,2]diazaborinin-3-yl)vinyl)phenoxy)acetamido)hexanamide] ({Propanoyl(3-Pip(4-O-2-BnPh))}-VAY[βAla]K(X1)-NH2) | 11 nM | 7.96 ± 0.11
C[C@@H](O)[C@H](NC(=O)CCN1CCC(Oc2ccccc2Cc2ccccc2)CC1)C(=O)N[C@@H](CO)C(=O)N[C@@H](Cc1ccc(O)cc1)C(=O)NCCC(=O)N[C@@H](CCCCNC(=O)COc1ccc(/C=C/C2=[N+]3C(=Cc4ccc(-c5cccs5)n4[B-]3(F)F)C=C2)cc1)C(N)=O [Compound 31g, (S)-2-((6S,9S,12S)-16-(4-(2-Benzylphenoxy)piperidin-1-yl)-6-(4-hydroxybenzyl)-12-((R)-1-hydroxyethyl)-9-(hydroxymethyl)-5,8,11,14-tetraoxo-4,7,10,13-tetraazahexadecanamido)-6-(2-(4-((E)-2-(5,5-difluoro-7-(thiophen-2-yl)-5H-5λ^4,6λ^4-dipyrrolo[1,2-c:2’,1’-f][1,3,2]diazaborinin-3-yl)vinyl)phenoxy)acetamido)hexanamide] ({Propanoyl(3-Pip(4-O-2-BnPh))}-TSY[βAla]K(X1)-NH2) | 7 nM | 8.16 ± 0.12
C[C@H](NC(=O)[C@@H](NC(=O)CCN1CCC(Oc2ccccc2Cc2ccccc2)CC1)[C@@H](C)O)C(=O)N[C@@H](Cc1ccc(O)cc1)C(=O)NCCC(=O)N[C@@H](CCCCNC(=O)COc1ccc(/C=C/C2=[N+]3C(=Cc4ccc(-c5cccs5)n4[B-]3(F)F)C=C2)cc1)C(N)=O [Compound 31h, (S)-2-((6S,9S,12S)-16-(4-(2-Benzylphenoxy)piperidin-1-yl)-6-(4-hydroxybenzyl)-12-((R)-1-hydroxyethyl)-9-methyl-5,8,11,14-tetraoxo-4,7,10,13-tetraazahexadecanamido)-6-(2-(4-((E)-2-(5,5-Difluoro-7-(thiophen-2-yl)-5H-5λ^4,6λ^4-dipyrrolo[1,2-c:2’,1’-f][1,3,2]diazaborinin-3-yl)vinyl)phenoxy)acetamido)hexanamide] ({Propanoyl(3-Pip(4-O-2-BnPh))}-TAY[βAla]K(X1)-NH2) | 6 nM | 8.23 ± 0.17
CC[C@H](C)[C@H](NC(=O)CCN1CCC(Oc2ccccc2Cc2ccccc2)CC1)C(=O)N[C@@H](CO)C(=O)N[C@@H](CC(N)=O)C(=O)NCCC(=O)N[C@@H](CCCCNC(=O)COc1ccc(/C=C/C2=[N+]3C(=Cc4ccc(-c5cccs5)n4[B-]3(F)F)C=C2)cc1)C(N)=O [Compound 31i, (S)-N1-(3-(((S)-1-Amino-6-(2-(4-((E)-2-(5,5-difluoro-7-(thiophen-2-yl)-5H-5λ^4,6λ^4-dipyrrolo[1,2-c:2’,1’-f][1,3,2]diazaborinin-3-yl)vinyl)phenoxy)acetamido)-1-oxohexan-2-yl)amino)-3-oxopropyl)-2-((S)-2-((2S,3S)-2-(3-(4-(2-benzylphenoxy)piperidin-1-yl)propanamido)-3-methylpentanamido)-3-hydroxypropanamido)succinamide] ({Propanoyl(3-Pip(4-O-2-BnPh))}-ISN[βAla]K(X1)-NH2) | 5 nM | 8.33 ± 0.09
CC(C)C[C@H](NC(=O)CCN1CCC(Oc2ccccc2Cc2ccccc2)CC1)C(=O)N[C@@H](CO)C(=O)N[C@@H](CC(N)=O)C(=O)NCCC(=O)N[C@@H](CCCCNC(=O)COc1ccc(/C=C/C2=[N+]3C(=Cc4ccc(-c5cccs5)n4[B-]3(F)F)C=C2)cc1)C(N)=O [Compound 31j, (S)-N1-(3-(((S)-1-Amino-6-(2-(4-((E)-2-(5,5-difluoro-7-(thiophen-2-yl)-5H-5λ^4,6λ^4-dipyrrolo[1,2-c:2’,1’-f][1,3,2]diazaborinin-3-yl)vinyl)phenoxy)acetamido)-1-oxohexan-2-yl)amino)-3-oxopropyl)-2-((S)-2-((S)-2-(3-(4-(2-benzylphenoxy)piperidin-1-yl)propanamido)-4-methylpentanamido)-3-hydroxypropanamido)succinamide] ({Propanoyl(3-Pip(4-O-2-BnPh))}-LSN[βAla]K(X1)-NH2) | 6 nM | 8.23 ± 0.06
CC(C)[C@H](NC(=O)CCN1CCC(Oc2ccccc2Cc2ccccc2)CC1)C(=O)N[C@@H](CO)C(=O)N[C@@H](CC(N)=O)C(=O)NCCC(=O)N[C@@H](CCCCNC(=O)CCCCCNC(=O)COc1ccc(/C=C/C2=[N+]3C(=Cc4ccc(-c5cccs5)n4[B-]3(F)F)C=C2)cc1)C(N)=O [Compound 38a, (S)-N^1-(3-(((S)-1-Amino-6-(6-(2-(4-((E)-2-(5,5-difluoro-7-(thiophen-2-yl)-5H-4λ^4,5λ^4-dipyrrolo[1,2-c:2’,1’-f][1,3,2]diazaborinin-3-yl)vinyl)phenoxy)acetamido)hexanamido)-1-oxohexan-2-yl)amino)-3-oxopropyl)-2-((S)-2-((S)-2-(3-(4-(2-benzylphenoxy)piperidin-1-yl)propanamido)-3-methylbutanamido)-3-hydroxypropanamido)succinamide] ({Propanoyl(3-Pip(4-O-2-BnPh))}-VSN[βAla]K([Ahx-X1])-NH2) | 18 nM | 7.74 ± 0.06
Cc1cc(C)n2c1C=C1C=CC(CCC(=O)NCCCCCC(=O)NCCCC[C@H](NC(=O)CCNC(=O)[C@H](CC(N)=O)NC(=O)[C@H](CO)NC(=O)[C@@H](NC(=O)CCN3CCC(Oc4ccccc4Cc4ccccc4)CC3)C(C)C)C(N)=O)=[N+]1[B-]2(F)F [Compound 38e, (S)-N^1-(3-(((S)-1-Amino-6-(6-(3-(5,5-difluoro-7,9-dimethyl-5H-4λ^4,5λ^4-dipyrrolo[1,2-c:2’,1’-f][1,3,2]diazaborinin-3-yl)propanamido)hexanamido)-1-oxohexan-2-yl)amino)-3-oxopropyl)-2-((S)-2-((S)-2-(3-(4-(2-benzylphenoxy)piperidin-1-yl)propanamido)-3-methylbutanamido)-3-hydroxypropanamido)succinamide] ({Propanoyl(3-Pip(4-O-2-BnPh))}-VSN[βAla]K([Ahx-BODIPY(FL)])-NH2) | 5250 nM | 5.28 ± 0.06
C[C@H](NC(=O)[C@H](C)NC(=O)[C@H](Cc1ccccc1)NC(=O)CCN1CCC(Oc2ccccc2Cc2ccccc2)CC1)C(=O)NCCC(=O)N[C@@H](CCCCNC(=O)CCCCCNC(=O)COc1ccc(/C=C/C2=[N+]3C(=Cc4ccc(-c5cccs5)n4[B-]3(F)F)C=C2)cc1)C(N)=O [Compound 39a, N-((5S,8S,11S,18S)-5-Benzyl-1-(4-(2-benzylphenoxy)piperidin-1-yl)-18-carbamoyl-8,11-dimethyl-3,6,9,12,16-pentaoxo-4,7,10,13,17-pentaazadocosan-22-yl)-6-(2-(4-((E)-2-(5,5-difluoro-7-(thiophen-2-yl)-5H-4λ^4,5λ^4-dipyrrolo[1,2-c:2’,1’-f][1,3,2]diazaborinin-3-yl)vinyl)phenoxy)acetamido)hexanamide] ({Propanoyl(3-Pip(4-O-2-BnPh))}-FAA[βAla]K([Ahx-X1])-NH2) | 10 nM | 7.98 ± 0.01
Cc1cc(C)n2c1C=C1C=CC(CCC(=O)NCCCCCC(=O)NCCCC[C@H](NC(=O)CCNC(=O)[C@H](C)NC(=O)[C@H](C)NC(=O)[C@H](Cc3ccccc3)NC(=O)CCN3CCC(Oc4ccccc4Cc4ccccc4)CC3)C(N)=O)=[N+]1[B-]2(F)F [Compound 39e, N-((5S,8S,11S,18S)-5-Benzyl-1-(4-(2-benzylphenoxy)piperidin-1-yl)-18-carbamoyl-8,11-dimethyl-3,6,9,12,16-pentaoxo-4,7,10,13,17-pentaazadocosan-22-yl)-6-(3-(5,5-difluoro-7,9-dimethyl-5H-4λ^4,5λ^4-dipyrrolo[1,2-c:2’,1’-f][1,3,2]diazaborinin-3-yl)propanamido)hexanamide] ({Propanoyl(3-Pip(4-O-2-BnPh))}-FAA[βAla]K([Ahx-BODIPY(FL)])-NH2) | 2690 nM | 5.57 ± 0.05
